The target of assay [1] is T1, 5HT1A receptors (Rattus norvegicus, UniProt P19327).
T1 sequence (P19327 1-422): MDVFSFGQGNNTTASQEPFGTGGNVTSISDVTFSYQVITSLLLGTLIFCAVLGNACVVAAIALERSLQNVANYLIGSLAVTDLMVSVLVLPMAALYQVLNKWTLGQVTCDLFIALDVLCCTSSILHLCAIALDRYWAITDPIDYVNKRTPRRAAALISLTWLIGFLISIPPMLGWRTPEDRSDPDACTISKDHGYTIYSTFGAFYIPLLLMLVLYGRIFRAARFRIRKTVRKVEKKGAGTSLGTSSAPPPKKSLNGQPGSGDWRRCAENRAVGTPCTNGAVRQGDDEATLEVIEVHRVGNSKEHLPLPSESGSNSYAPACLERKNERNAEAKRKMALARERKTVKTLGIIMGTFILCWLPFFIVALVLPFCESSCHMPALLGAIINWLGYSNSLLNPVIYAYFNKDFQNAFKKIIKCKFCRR
The assay can be described thus: Spontaneous tail flick (STF) test, agonist (alone) and antagonist (vs 8-OH-DPAT). It counts as in vivo, rat (male Wistar). On the set-up: from tissue; host or cells: whole living male Wistar rats (endogenous receptor). The following applies: rat, sc; antagonist test; s.c.; vs 8-OH-DPAT 0.63 mg/kg s.c.; read-out: STFs ID50 (95% CL) + DPAT. How it is done:
(§1) The tests were carried out using male Wistar rats weighing 200 to 220 g having free access to their food and to their drinking water in standard cages.
(§2) The animals are isolated individually for the tests for hypothermia, corticosterone secretion and flat body posture, or combined in groups of three for the tailflick test.
(§3) The compounds to be studied were administered by the subcutaneous route (s.c.) 60 minutes before the beginning of the test, that is to say 30 minutes before the solvent (agonist responses) or the 8-OH-DPAT (antagonist responses).
(§4) In all of the tests the solvent is used in parallel as a control. The animals were left to rest in their cage during the period between the injections and the evaluation. For the agonist studies, the solvent was administered at 1 ml/kg s.c. 30 minutes before the beginning of the test. For the antagonist studies, doses of 8-OH-DPAT that induce sub-maximal responses were chosen, that is doses of 0.63, 0.16, 0.16 and 0.16 mg/kg s.c. for, respectively, the tail flick test, flat body posture test, corticosterone secretion test and hypothermia test.
The tail flicks were determined on the animals in horizontal opaque plastics cylinders with the tail of the animals hanging freely on the edge of the laboratory work bench. After allowing 5 minutes for adaptation, the number of movements made in 5 minutes was recorded. An STF is defined as being an elevation of the tail to a level higher than that of the axis of the body [Millan M. J. et al., J. Pharmacol. Exp. Ther., 256, 973-982 (1990)].
(§5) In general, after variance analysis, the results are subjected to the Dunett test. The results are taken as significant if p <0.05.
(§6) The doses of the compounds tested are all expressed in base terms. Unless specified otherwise, all of the compounds were dissolved in sterile water (to which if necessary a few drops of lactic acid were added) and administered at a volume of 1 ml/kg s.c.

In assay [2] the target is T1, 5HT1A receptors. The experiment in a line: Flat body posture (FBP), agonist (alone) and antagonist (vs 8-OH-DPAT). The class given is in vivo, rat (male Wistar). Set-up: from tissue; host or cells: whole living male Wistar rats (endogenous receptor). The following applies: for ED50: rat, sc. The method, then: as §1, §2, §3, §4
(§7) The same animals were used to evaluate the influence of the compounds studied on FBP and on the determination of the plasma concentration of CS. All of the tests were carried out in the morning between 10.30 and 12.300 that is to say when the circadian levels of CS are lowest.
25 minutes after the treatment (that is to say 5 minutes before decapitation) the animals are observed in their cages and the presence or absence of FBP is noted.
(§8) The presence of FBP is defined by a characteristic posture of the animal. That posture is in the ventral decubitus position with the posterior limbs clearly extended. 5 minutes after the observation of FBP, the animals are decapitated and the blood from the trunk is collected in cooled tubes containing 50 μl of a 10% EDTA solution. After centrifugation at 4000 revs/min, the plasma is removed and stored at -30° C. until determination.
as §5
For the dose-response for the induction and inhibition of FBP, the ED50 values (doses at which 50% of the animals show a response) were calculated by the Litchfield and Wilcoxon method.
as §6

Assay [3] addresses T1, 5HT1A receptors. The assay can be described thus: Corticosterone secretion (CS), agonist (alone) and antagonist (vs 8-OH-DPAT). The class given is in vivo, rat (male Wistar). On the set-up: from tissue; host or cells: whole living male Wistar rats (endogenous receptor). The following applies: for CS secretion MED alone: agonist test, compound alone s.c., minimum effective dose vs control; for ED50: rat, sc, antagonist test, s.c., read-out: CS secretion ID50 (95% CL) + DPAT. How it is done:
as §1, §2, §3, §4, §7, §8
The CS was determined by a radio-competitive determination for a plasma protein that binds the CS: transcortine. The latter is obtained from a monkey serum. The separation of the CS-transcortine complexes from the free CS was carried out by means of a solution of dextran and active carbon. The detection limit was 50 pg/tube. The intra- and inter-experiment variations in determination were 5 and 15% respectively [cf Rivet J. M. et al, Eur. J. Pharmacol., 183,634-635 (1990)].
The CS base rates in the plasma never being zero, the following formula was used to calculated the percentage inhibition of plasma CS induced by 8-OH-DPAT: [formula]
as §5, §6

Assay [4] deals with T1, 5HT1A receptors. The experiment in a line: Body temperature / hypothermia, agonist (alone) and antagonist (vs 8-OH-DPAT). The following applies: for HYPOTHERMIA MED alone: agonist test, compound alone s.c., minimum effective dose vs control; for ED50: rat, sc, antagonist test, s.c., vs 8-OH-DPAT 0.16 mg/kg s.c., read-out: HYPOTHERMIA ID50 (95% CL) + DPAT. On the set-up: from tissue; host or cells: whole living male Wistar rats (endogenous receptor). The class given is in vivo, rat (male Wistar). The method, then: as §1, §2, §3, §4
The rats are immobilised and a lubricated digital thermometer (Termistroprobe of Testotherm, Basle, Switzerland) is inserted into the rectum to a depth of 5 cm. 30 seconds after insertion, the temperature is read on a digital scale. The percentage inhibition is calculated using the formula given above.
as §5, §6

Assay [5] deals with T1, 5HT1A receptors. The experiment in a line: In vitro binding test, 5HT1A receptors ([3H]-8-OH-DPAT, hippocampus membranes). Set-up: The hippocampus of the brains of decapitated rats was immediately frozen; from tissue; host or cells: hippocampus membranes of male Wistar rats; species or system rat (male Wistar). The following applies: for Ki: rat hippocampus, [3H]-8-OH-DPAT 0.4 nM, 30 min at 25° C, read-out: AFFINITY (pKi) (converted). How it is done: as §1
The hippocampus of the brains of decapitated rats was immediately frozen on solid carbon dioxide and then kept at -80° C. until preparation of the membranes. The tissue was homogenised at 4° C. in the appropriate buffer using a Polytron (Brinkman Instruments, Lucerne, Switzerland) and centrifuged at 20,000 revs/min.
Incubation was carried out for 30 minutes at 25° C. Non-specific binding was established by […] of 5HT. The tests were terminated by rapid filtration using a Brandel harvester through glass fibre filters pretreated with 0.1% polyethylene imine.
The IC50 values were determined in accordance with process 8 of Tallarida R. J. and Murray R. B., Manual of Pharmacological calculations with computer programs, Springer Verlag, New York, (1987).
The pKi was calculated in accordance with the following formula: [formula] wherein [L] is the concentration of the hot ligand (^[3] H-8-OH-DPAT, 0.4 nM) and Kd is the apparent dissociation constant determined from the saturation experiments.
The substances studied were dissolved in the incubation buffer.
Binding of 5HT1A receptors

[6] abbreviates: agonist test, compound alone s.c., read-out: FBP ED50 (95% CL) alone.
[7] abbreviates: antagonist test, s.c., vs 8-OH-DPAT 0.16 mg/kg s.c., read-out: FBP ID50 (95% CL) + DPAT.

The structures appear in SMILES notation. pKi: −log10 of the molar value. Like-named read-outs stand apart in the source and are kept apart here.

On to `c1cc2c(c(N3CCN(CC4Cc5ccsc5C4)CC3)c1)OCCO2` (racemic) [Example 3], for which the ED50 is below 0.16 mg/kg at 5HT1A receptors [1]; below 10 mg/kg at 5HT1A receptors [2] (setting [6]); 1.6 mg/kg at 5HT1A receptors [2] (setting [7]); 1.56 mg/kg on 5HT1A receptors [3] (vs 8-OH-DPAT 0.16 mg/kg s.c.); 0.5 mg/kg at 5HT1A receptors [4]. Further, the “% MPA (% maximum possible antagonism), FBP” value on 5HT1A receptors [2] (vs 8-OH-DPAT 0.16 mg/kg s.c.) turned out to be 100%. Also, the “CS secretion MED alone” value on 5HT1A receptors [3] is on record as above 10.0 mg/kg. Moreover, at 5HT1A receptors [3] (vs 8-OH-DPAT 0.16 mg/kg s.c.), the “% MPA (% maximum possible antagonism), CS secretion” value is on record as 100%. Also, the “HYPOTHERMIA MED alone” value at 5HT1A receptors [4] is recorded as above 2.5 mg/kg. In addition, the Ki at 5HT1A receptors [5] is 1.7 nM.
`c1cc2c(c(N3CCN(CCCCc4ccsc4)CC3)c1)OCCO2` [Example 4, 4-(Benzodioxan-5-yl)-1-[4-(thiophen-3-yl)butyl]piperazine]: the Ki at 5HT1A receptors [5] is 0.38 nM.
Turning to `c1cc2c(c(N3CCN(CCc4cccc5ccccc45)CC3)c1)OCCO2` [Example 5, 4-(Benzodioxan-5-yl)-1-[2-(naphth-1-yl)ethyl]piperazine], the ED50 at 5HT1A receptors [2] (setting [6]) was above 2.5 mg/kg; at 5HT1A receptors [2] (setting [7]), below 2.5 mg/kg; at 5HT1A receptors [3] (vs 8-OH-DPAT 0.16 mg/kg s.c.) it was 2.5 mg/kg; at 5HT1A receptors [4], 0.32 mg/kg. Further, on 5HT1A receptors [3], the “CS secretion MED alone” value was above 2.5 mg/kg. The “HYPOTHERMIA MED alone” value at 5HT1A receptors [4] is on record as above 10.0 mg/kg. The Ki on 5HT1A receptors [5] was 1.29 nM.
For `c1cc2c(c(N3CCN(CCc4ccc5ccccc5c4)CC3)c1)OCCO2` [Example 6, 4-(Benzodioxan-5-yl)-1-[2-(naphth-2-yl)ethyl]piperazine], the Ki at 5HT1A receptors [5] was 1.02 nM.
With `c1cc2c(c(N3CCN(CCc4csc5ccccc45)CC3)c1)OCCO2` [Example 7, 4-(Benzodioxan-5-yl)-1-[2-(benzo[b]thiophen-3-yl)ethyl]piperazine], the negative logarithm of the Ki (pKi) at 5HT1A receptors [5] was 9.14.
Turning to `c1cc2c(c(N3CCN(CCc4cc5ccsc5s4)CC3)c1)OCCO2` [Example 8, 4-(Benzodioxan-5-yl)-1-[2-(thieno[2,3-b]thiophen-2-yl)ethyl]piperazine], the pKi at 5HT1A receptors [5] was 9.23.
Consider `c1cc2c(c(N3CCN(CCc4ccsc4)CC3)c1)OCCO2` [Example 11, 4-(Benzodioxan-5-yl)-1-[2-(thiophen-3-yl)ethyl]piperazine], for which the ED50 was above 2.5 mg/kg on 5HT1A receptors [2] (setting [6]), below 2.5 mg/kg on 5HT1A receptors [2] (setting [7]), 2.5 mg/kg at 5HT1A receptors [3] (vs 8-OH-DPAT 0.16 mg/kg s.c.) and 0.16 mg/kg at 5HT1A receptors [4]. Moreover, the “CS secretion MED alone” value at 5HT1A receptors [3] is above 2.5 mg/kg. For the same compound, the “HYPOTHERMIA MED alone” value at 5HT1A receptors [4] was above 2.5 mg/kg. For the same compound, at 5HT1A receptors [5], the pKi is 8.92.
For the compound `c1ccc(CCCN2CCN(c3cccc4c3OCCO4)CC2)cc1` [Example 12, 4-(Benzodioxan-5-yl)-1-(3-phenylpropyl)piperazine], the ED50 at 5HT1A receptors [2] (setting [6]) is above 2.5 mg/kg; on 5HT1A receptors [2] (setting [7]), below 2.5 mg/kg; at 5HT1A receptors [3] (vs 8-OH-DPAT 0.16 mg/kg s.c.), 2.5 mg/kg; on 5HT1A receptors [4], 0.63 mg/kg. In addition, on 5HT1A receptors [3], the “CS secretion MED alone” value is above 2.5 mg/kg. Moreover, on 5HT1A receptors [4], the “HYPOTHERMIA MED alone” value was above 2.5 mg/kg. Moreover, the Ki at 5HT1A receptors [5] is 1.7 nM.
Turning to `c1csc(CCN2CCN(c3cccc4c3OCCO4)CC2)c1` [Example 13, 4-(Benzodioxan-5-yl)-1-[2-(thiophen-2-yl)ethyl]piperazine], the negative-log Ki (pKi) on 5HT1A receptors [5] was 8.96.

The values above are taken from US5464834A, “N-substituted N'-heterobicyclic piperazines having pharmaceutical activity” (Adir et Compagnie, priority 1992, dated 1995).
